This passage reports IC50 results from US8063040B2, “Triazabenzo[E]azulene derivatives for the treatment of tumors” (Merck Patent Gesellschaft Mit Beschrankter Haftung, priority 2006, dated 2011).

Counter-ions that a name gives are not always drawn.

In general, IC50 refers to the concentration needed to halve the response being measured. Read a high IC50 as weaker potency in that assay.

For the experiment, the system named is TGF-beta. As to the kind of experiment: Elimination of TGF-beta-mediated growth inhibition in Mv1Lu cells (Crystal Violet staining). It is filed as cell-based. As to conditions: lung epithelial cell line Mv1Lu, 1 ng/ml TGF-beta, 0.5% FCS, two days, absorption at 550 nm. On the procedure:
In-vitro (Enzyme) Assay for Determination of the Efficacy of the Inhibitors of the Inhibition of TGF-Beta-Mediated Effects
As an example, the ability of the inhibitors to eliminate TGF-beta-mediated growth inhibition is tested.
Cells of the lung epithelial cell line Mv1Lu are sown in a defined cell density in a 96-well microtitre plate and cultivated overnight under standard conditions. Next day, the medium is replaced by medium which comprises 0.5% of FCS and 1 ng/ml of TGF-beta, and the test substances are added in defined concentrations, generally in the form of dilution series with 5-fold steps. The concentration of the solvent DMSO is constant at 0.5%. After a further two days, Crystal Violet staining of the cells is carried out. After extraction of the Crystal Violet from the fixed cells, the absorption is measured spectrophotometrically at 550 nm. It can be used as a quantitative measure of the adherent cells present and thus of the cell proliferation during the culture.

Take `Cc1cccc(-c2nnc3n2-c2ccc(O)cc2CCC3C)n1` (centres unmarked) [Compound A19, 8-Hydroxy-4-methyl-1-(6-methylpyridin-2-yl)-5,6-dihydro-4H-2,3,10b-triazabenzo[e]azulene]: the half-inhibitory concentration (IC50) amounted to 2.5 µM. On the same count and under the same terms, for `Cc1cccc(-c2nnc3n2-c2ccc(O)cc2CCC3C)n1` (centres unmarked) [Compound A2, 8-hydroxy-4-methyl-1-(6-methylpyridin-2-yl)-5,6-dihydro-4H-2,3,10b-triazabenzo[e]azulene] the value was 0.2 µM. Take `COc1ccc2c(c1)CCC(C)c1nnc(-c3cccc(C)n3)n1-2` (centres unmarked) [Compound A1, 8-methoxy-4-methyl-1-(6-methylpyridin-2-yl)-5,6-dihydro-4H-2,3,10b-triazabenz[e]azulene]: under “Mv1Lu, 48 h”, 3.9 µM corresponded to half-maximal inhibition (IC50).

`COc1ccc2c(c1)C(C)CCc1nnc(-c3cccc(C)n3)n1-2` (centres unmarked) [Compound A18, 8-Methoxy-6-methyl-1-(6-methylpyridin-2-yl)-5,6-dihydro-4H-2,3,10b-triazabenzo[e]azulene, trifluoroacetate] had an IC50 (Mv1Lu, 48 h) of 3.3 µM. Still for that read-out and setting: as for `Cc1cccc(-c2nnc3n2-c2ccc(Cl)cc2C(C)CC3)n1` (centres unmarked) [Compound A4, 8-chloro-6-methyl-1-(6-methylpyridin-2-yl)-5,6-dihydro-4H-2,3,10b-triazabenzo[e]azulene], the figure is 9.9 µM.
